Reference: patent US4468394A, “Cephalosporin compounds” (Eisai Co., Ltd., priority 1981, dated 1984)
≈ marks a conversion by molar mass, not a printed value. Counter-ions that a name gives are not always drawn.

Key:
Pseud. aeruginosa EP-067 = test: Antibacterial activity (MIC), Pseud. aeruginosa EP-067; type: cell-based; details: Pseudomonas aeruginosa
Source text: (§1) Tables 1 and 2 show the antibacterial activity (MIC, μg/mL) of the compounds of this invention.

Kleb. pneumoniae EK-6 = test: Antibacterial activity (MIC), Kleb. pneumoniae EK-6; type: cell-based; details: Klebsiella pneumoniae
Source text: as §1

Pseud. aeruginosa EP-069 = test: Antibacterial activity (MIC), Pseud. aeruginosa EP-069; type: cell-based; details: Pseudomonas aeruginosa
Source text: as §1

Pseud. aeruginosa EP-071 = test: Antibacterial activity (MIC), Pseud. aeruginosa EP-071; type: cell-based; details: Pseudomonas aeruginosa
Source text: as §1

Pseud. aeruginosa = details: in words; cited from earlier work
Kleb. pneumoniae = details: in words; cited from earlier work
[1] = Acute toxicity LD50 (mouse, oral); details: in vivo
Source text: The acute toxicity values [LD50 (mouse, oral)] of the compounds of this invention are higher than 4 g/kg in the case of 7β-[D-2-(6,7-dihydroxy-4-oxo-4H-1-benzothiopyran-3-carboxamide)-2-(4- hydroxyphenyl)acetamide]-3-(1-carboxymethyl-5-tetrazolyl)thiomethyl-3-cephem-4-carboxylic acid and 7β-[D-2-(6,7-diacetoxy-1-ethyl-1,4-dihydro-4-oxoquinoline-3-carboxamide)-2-(4-hydroxyphenyl)acetamide]-3-(1-carboxymethyl-5-tetrazolyl)thiomethyl-3-cephem-4-carboxylic acid, as well as 7β-[D-2-(6,7-dihydroxy-2-oxo-2H-1-benzopyran-3-carboxamide)-2-(4-hydroxyphenyl)acetamide]-3-(1-carboxymethyl-5-tetrazolyl)thiomethyl-3-cephem-4-carboxylic acid and 7β-[D-2-(6,7-dihydroxy-2-oxo-2H-1-benzothiopyran-3-carboxamide)-2-(4- hydroxyphenyl)acetamide]-3-(1-carboxymethyl-5-tetrazolyl)thiomethyl-3-cephem-4-carboxylic acid.

Row | Compound | MIC (Pseud. aeruginosa EP-067; EP067, Table 1) [µg/mL] | MIC (Kleb. pneumoniae EK-6; EK6, Table 1) [µg/mL] | MIC (Pseud. aeruginosa EP-069; EP069, Table 1) [µg/mL] | MIC (Pseud. aeruginosa EP-071; EP071, Table 1) [µg/mL] | antibacterial activity according to the known literature (Pseud. aeruginosa) | MIC (Pseud. aeruginosa EP-067; EP067, Table 2) [µg/mL] | antibacterial activity according to the known literature (Kleb. pneumoniae) | MIC (Kleb. pneumoniae EK-6; EK6, Table 2) [µg/mL] | MIC (Pseud. aeruginosa EP-069; EP069, Table 2) [µg/mL] | MIC (Pseud. aeruginosa EP-071; EP071, Table 2) [µg/mL] | LD50 [1] [mg/kg]
1 | CC1(C)S[C@@H]2[C@H](NC(=O)[C@H](NC(=O)c3cnc4cccnc4c3O)c3ccccc3)C(=O)N2[C@H]1C(=O)O [D(-)-α-(4-hydroxy-1,5-naphthyridine-3-carboxamide)benzylpenicillin, reference compound] | 12.5 (≈ 24 µM) | 3.13 (≈ 6 µM) | 12.5 (≈ 24 µM) | 0.8 (≈ 1.53 µM) | highest antibacterial activity | – | – | – | – | – | –
2 | CC1(C)S[C@@H]2[C@H](NC(=O)[C@H](NC(=O)c3cc4ccccc4oc3=O)c3ccccc3)C(=O)N2[C@H]1C(=O)O [D(-)-α-(coumarin-3-carboxamide)benzylpenicillin, reference compound] | – | – | – | – | highest in antibacterial activity | 12.5 (≈ 24 µM) | highest in antibacterial activity | 12.5 (≈ 24 µM) | 12.5 (≈ 24 µM) | 1.56 (≈ 2.99 µM) | –
3 | CCn1cc(C(=O)N[C@@H](C(=O)N[C@@H]2C(=O)N3[C@@H]2SC(C)(C)[C@@H]3C(=O)O)c2ccccc2)c(=O)c2cc(OC(C)=O)c(OC(C)=O)cc21 [Example 2, 6β-[D-2-(6,7-Diacetoxy-1-ethyl-1,4-dihydro-4-oxoquinoline-3-carboxamide)-2-phenylacetamide]penicillanic acid] | 1.56 (≈ 2.35 µM) | 0.2 (≈ 0.301 µM) | 3.13 (≈ 4.71 µM) | 0.1 (≈ 0.15 µM) | – | – | – | – | – | – | –
4 | CCn1cc(C(=O)N[C@@H](C(=O)N[C@@H]2C(=O)N3C(C(=O)O)=C(CSc4nnnn4CC(=O)O)CS[C@H]23)c2ccc(O)cc2)c(=O)c2cc(OC(C)=O)c(OC(C)=O)cc21 [Example 5, 7β-[D-2-(6,7-Diacetoxy-1-ethyl-1,4-dihydro-4-oxoquinoline-3-carboxamide)-2-(4-hydroxyphenyl)acetamide]-3-(1-carboxymethyl-5-tetrazolyl)thiomethyl-3-cephem-4-carboxylic acid] | 3.13 (≈ 3.74 µM) | 0.024 (≈ 0.0287 µM) | 3.13 (≈ 3.74 µM) | 0.2 (≈ 0.239 µM) | – | – | – | – | – | – | > 4000
5 | CCn1cc(C(=O)N[C@@H](C(=O)N[C@@H]2C(=O)N3C(C(=O)O)=C(CSc4nnc(C)s4)CS[C@H]23)c2ccc(O)cc2)c(=O)c2cc(O)c(O)cc21 [Example 6, 7β-[D-2-(6,7-Dihydroxy-1-ethyl-1,4-dihydro-4-oxoquinoline-3-carboxamide)-2-(4-hydroxyphenyl)acetamide]-3-[5-methyl-2-(1,3,4-thiadiazolyl)]thiomethyl-3-cephem-4-carboxylic acid] | 3.13 (≈ 4.32 µM) | 0.05 (≈ 0.069 µM) | 3.13 (≈ 4.32 µM) | 0.2 (≈ 0.276 µM) | – | – | – | – | – | – | –
6 | O=C(O)Cn1nnnc1SCC1=C(C(=O)O)N2C(=O)[C@@H](NC(=O)[C@H](NC(=O)c3csc4cc(O)c(O)cc4c3=O)c3ccc(O)cc3)[C@H]2SC1 [Example 10, 7β-[D-2-(6,7-Dihydroxy-4-oxo-4H-1-benzothiopyran-3-carboxamide)-2-(4-hydroxyphenyl)acetamide]-3-(1-carboxymethyl-5-tetrazolyl)thiomethyl-3-cephem-4-carboxylic acid] | 3.13 (≈ 4.22 µM) | ≤ 0.012 | 3.13 (≈ 4.22 µM) | 0.2 (≈ 0.27 µM) | – | – | – | – | – | – | > 4000
7 | CO[C@@]1(NC(=O)[C@H](NC(=O)c2csc3cc(OC(C)=O)c(OC(C)=O)cc3c2=O)c2ccc(O)cc2)C(=O)N2C(C(=O)O)=C(COC(C)=O)CS[C@@H]21 [Example 11, 7β-[D-2-(6,7-Diacetoxy-4-oxo-4H-1-benzothiopyran-3-carboxamide)-2-(4-hydroxyphenyl)acetamide]-7α-methoxy-3-acetoxymethyl-3-cephem-4-carboxylic acid] | 3.13 (≈ 4.14 µM) | 0.024 (≈ 0.0318 µM) | 3.13 (≈ 4.14 µM) | 0.2 (≈ 0.265 µM) | – | – | – | – | – | – | –
8 | CCn1cc(C(=O)N[C@@H](C(=O)N[C@@H]2C(=O)N3C(C(=O)O)=C(CSc4nnc(C)s4)CS[C@H]23)c2ccc(O)cc2)c(=O)c2cc(OC(C)=O)c(O)cc21 [Example 12, 7β-[D-2-(6-Acetoxy-7-hydroxy-1-ethyl-1,4-dihydro-4-oxoquinoline-3-carboxamide)-2-(4-hydroxyphenyl)acetamide]-3-[5-methyl-2-(1,3,4-thiadiazolyl)]thiomethyl-3-cephem-4-carboxylic acid sodium salt] | 3.13 | 0.024 | 3.13 | 0.2 | – | – | – | – | – | – | –
9 | CC(=O)Oc1cc2cc(C(=O)N[C@@H](C(=O)N[C@@H]3C(=O)N4[C@@H]3SC(C)(C)[C@@H]4C(=O)O)c3ccccc3)c(=O)oc2cc1OC(C)=O [Example 14, 6β-[D-2-(6,7-Diacetoxy-2-oxo-2H-1-benzopyran-3-carboxamide)-2-phenylacetamide]penicillanic acid] | – | – | – | – | – | 1.56 (≈ 2.45 µM) | – | 0.2 (≈ 0.314 µM) | 1.56 (≈ 2.45 µM) | 0.2 (≈ 0.314 µM) | –
10 | Cn1nnnc1SCC1=C(C(=O)O)N2C(=O)[C@@H](NC(=O)[C@H](NC(=O)c3cc4cc(O)c(O)cc4oc3=O)c3ccc(O)cc3)[C@H]2SC1 [Example 20, 7β-[D-2-(6,7-Dihydroxy-2-oxo-2H-1-benzopyran-3-carboxamide)-2-(4-hydroxyphenyl)acetamide]-3-(1-methyl-5-tetrazolyl)thiomethyl-3-cephem-4-carboxylic acid] | – | – | – | – | – | 0.8 (≈ 1.17 µM) | – | 0.2 (≈ 0.293 µM) | 0.8 (≈ 1.17 µM) | 0.2 (≈ 0.293 µM) | –
11 | O=C(O)Cn1nnnc1SCC1=C(C(=O)O)N2C(=O)[C@@H](NC(=O)[C@H](NC(=O)c3cc4cc(O)c(O)cc4oc3=O)c3ccc(O)cc3)[C@H]2SC1 [Example 21, 7β-[D-2-(6,7-Dihydroxy-2-oxo-2H-1-benzopyran-3-carboxamide)-2-(4-hydroxyphenyl)acetamide]-3-(1-carboxymethyl-5-tetrazolyl)thiomethyl-3-cephem-4-carboxylic acid] | – | – | – | – | – | – | – | – | – | – | > 4000
12 | CC(=O)OCC1=C(C(=O)O)N2C(=O)[C@@H](NC(=O)[C@H](NC(=O)c3cc4ccc(O)c(O)c4oc3=O)c3ccc(O)cc3)[C@H]2SC1 [Example 25, 7β-[D-2-(7,8-Dihydroxy-2-oxo-2H-1-benzopyran-3-carboxamide)-2-(4-hydroxyphenyl)acetamide]-3-acetoxymethyl-3-cephem-4-carboxylic acid] | – | – | – | – | – | 0.8 (≈ 1.28 µM) | – | 0.1 (≈ 0.16 µM) | 1.56 (≈ 2.49 µM) | 0.1 (≈ 0.16 µM) | –
13 | O=C(O)Cn1nnnc1SCC1=C(C(=O)O)N2C(=O)[C@@H](NC(=O)[C@H](NC(=O)c3cc4ccc(O)c(O)c4oc3=O)c3ccc(O)cc3)[C@H]2SC1 [Example 27, 7β-[D-(7,8-Dihydroxy-2-oxo-2H-1-benzopyran-3-carboxamide)-2-(4-hydroxyphenyl)acetamide]-3-(1-carboxymethyl-5-tetrazolyl)thiomethyl-3-cephem-4-carboxylic acid] | – | – | – | – | – | 1.56 (≈ 2.15 µM) | – | ≤ 0.012 | 1.56 (≈ 2.15 µM) | 0.1 (≈ 0.138 µM) | –
14 | CC(=O)Oc1cc2cc(C(=O)N[C@@H](C(=O)N[C@@H]3C(=O)N4[C@@H]3SC(C)(C)[C@@H]4C(=O)O)c3ccccc3)c(=O)sc2cc1OC(C)=O [Example 28, 6β-[D-2-(6,7-Diacetoxy-2-oxo-2H-1-benzothiopyran-3-carboxamide)-2-phenylacetamide]penicillanic acid] | – | – | – | – | – | 1.56 (≈ 2.39 µM) | – | 0.1 (≈ 0.153 µM) | 3.13 (≈ 4.79 µM) | 0.1 (≈ 0.153 µM) | –
15 | O=C(O)Cn1nnnc1SCC1=C(C(=O)O)N2C(=O)[C@@H](NC(=O)[C@H](NC(=O)c3cc4cc(O)c(O)cc4sc3=O)c3ccc(O)cc3)[C@H]2SC1 [Example 30] | – | – | – | – | – | – | – | – | – | – | > 4000
16 | Cc1nnc(SCC2=C(C(=O)O)N3C(=O)[C@@H](NC(=O)[C@H](NC(=O)c4cc5cc(O)c(O)cc5[nH]c4=O)c4ccc(O)cc4)[C@H]3SC2)s1 [Example 34, 7β-[D-2-(6,7-Dihydroxy-1,2-dihydro-2-oxoquinoline-3-carboxamide)-2-(4-hydroxyphenyl)acetamide]-3-[5-methyl-2-(1,3,4-thiadiazolyl)]thiomethyl-3-cephem-4-carboxylic acid] | – | – | – | – | – | 3.13 (≈ 4.49 µM) | – | 0.4 (≈ 0.574 µM) | 3.13 (≈ 4.49 µM) | 0.4 (≈ 0.574 µM) | –
17 | CC(=O)OCC1=C(C(=O)O)N2C(=O)[C@@H](NC(=O)[C@H](NC(=O)c3cc4cc(OC(C)=O)c(OC(C)=O)cc4n(C)c3=O)c3ccc(O)cc3)[C@H]2SC1 [Example 35, 7β-[D-2-(6,7-Diacetoxy-1-methyl-1,2-dihydro-2-oxoquinoline-3-carboxamide)-2-(4-hydroxyphenyl)acetamide]-3-acetoxymethyl-3-cephem-4-carboxylic acid] | – | – | – | – | – | 3.13 (≈ 4.33 µM) | – | 0.8 (≈ 1.11 µM) | 1.56 (≈ 2.16 µM) | 0.2 (≈ 0.277 µM) | –
